Drawing on patent US20240262801A1, “COMPOUNDS HAVING 5-(2-FLUORO-6-HYDROXYPHENYL)-1,2,5-THIADIAZOLIDIN-3-ONE 1,1-DIOXIDE AS INHIBITORS OF PROTEIN KINASE PHOSPHATASE ENZYMES” (Ness Therapeutics, Inc., priority 2021, published 2024), this text covers IC50 and inhibition for 20 compounds.

pIC50: −log10 of the molar value. Where a name gives a salt, the structure may show the parent alone. Read-outs that look alike come from different tables or passages of the source. Some results are limits rather than exact numbers.

The term pIC50 denotes the negative decadic logarithm of the IC50, by convention in mol/L. What is called inhibition is the share of the control response that was lost under treatment.

In one assay the target is T1, GST-tagged PTPN2 protein (Homo sapiens, UniProt P17706).
T1 construct: purchased ActiveMotif 31592
Put plainly: Primary assay of PTPN2 enzymatic activity inhibition (DiFMUP fluorescence). The class given is biochemical. The note with it: DiFMUP substrate 2 μM, 60 min at RT. The procedure: Compound activity was determined using GST-tagged PTPN2 protein (Cat #31592, ActiveMotif) (SEQ ID NO: 1) in an in vitro enzymatic reaction. The enzymatic reaction was carried out in assay buffer (50 mM HEPES Na salt pH 7.2-7.4, 2 mM EDTA, 100 mM NaCl, 52 ng/μL BSA, and 6 mM DTT). The compounds were dispensed on a 384 well Diamond Well Plate (Axigen, Cat #P-384-120SQ-C-S) using the Biomek FX liquid handling system at 100× solutions of compounds in DMSO. 2× PTPN2 (final concentration 0.004 ng/μL) was prepared in 1× Assay buffer and 25 μL of mixture per well was added into Reaction plate (Optiplate, black, Perkin Elmer, Cat #6007270). Add 25 μL of 1× buffer to Ctrl- (Substrate w/o PTPN2) wells followed by centrifugation at 100 g for 1 min. Next step the Compounds were added to Reaction plate using Biomek station via following steps: 3 ul of 100× compounds (in DMSO) were mixed with 27 μL of Assay Buffer, then 5 μL of this mixture was added to Reaction plate with 25 μL of PTPN2 Mix. Plates were centrifuged for 1 min at 100 g and incubated for another 10 minutes at room temperature. Finally, 20 μL of 2.5× Substrate (DiFUMP, Invitrogen™ Cat #D6567) mix was added into appropriate wells of Reaction plate to the final concentration of 2 μM, plate was centrifuged at 100 g for 1 min followed by incubation at RT for 60 min, and the Fluorescence Intensity was measured using a Microplate Reader (ClarioStar Plus, excitation 360 nm, emission 450 nm). The % inhibition was then used to calculate the IC50 values. The IC50 values are shown in Table A1, wherein “A” corresponds to IC50<5.0 nm, “B” corresponds to 5.0 nm≤IC50<10.0 nm, “C” corresponds to 10.0 nm≤IC50<50.0 nm, “D” corresponds to 50.0 nm≤IC50<100.0 nm, and “E” corresponds to 100.0 nm≤IC50<500.0 nm, and “F” corresponds to 500.0 nm≤IC50.

For assay [1], the system named is B16F10 mouse melanoma cells. Put plainly: Tumor cells B16F10 cellular growth IFNγ-induced inhibition assay (CellTiter-Glo). The class given is cell-based. The note with it: for pIC50: B16-F10, 72 h, 3 days incubation; for inhibition at 100 µM: B16-F10, B16F10, 100 μM compound. The procedure: B16F10 mouse melanoma cells (ATCC Cat #CRL-6475) were seeded at a density of 500 cells per well in a 384-well clear bottom plate (Corning Cat #3712, Corning, N.Y.) in 40 μL total volume of DMEM+10% FBS (PanEco Cat #C420, Russia and Sigma Cat #F4135, St. Louis, Mo.). Cells were allowed to adhere overnight at 37° C., 5% CO2. On the following day, 250× solutions of compounds in DMSO (Sigma Cat #D2650) were prepared into […] plate (Diamond Well Plate, Axigen, Cat #P-384-120SQ-C-S) (final concentration of 1×) and DMSO only controls were included. Dilution Plate (Diamond Well Plate (Axigen, Cat #P-384-120SQ-C-S) was prepared by adding 49 μL of culture medium per well: half of the plate with culture medium only, half with culture medium+IFNγ (5 ng/ml). A 1 μL aliquot of 250× compounds ([…] plate) was added to 49 μL of culture medium (Dilution plate), then a 10 μL aliqut of the mixture was transferred to Reaction plate with 40 μL of cells followed by centrifugation at 240 g for 1 min. After 3 days of incubation, 10 μL of CellTiter-Glo (Promega) was added to the cells, plates were centrifuged at 240 g for 1 min, and luminescence signal was measured. For each compound, the percent growth inhibition at every compound dose level was calculated relative to the “DMSO/with IFNγ” control and used to determine the IC50.
On the technique in general: ATP-based viability assays read luminescence as a measure of living cells.

The mark [2] stands for this setting: B16F10, + IFNγ, read-out: IC50 + IFNγ.
Where [3] appears, read: B16F10, no IFNγ, read-out: IC50 no IFNγ.
The mark [4] stands for this setting: + IFNγ, read-out: % Growth Inhibition at 100 μM + IFNγ.
Setting [5] is: no IFNγ, read-out: % Growth Inhibition at 100 μM no IFNγ.

T1 sequence (P17706 with tags, fused parts or gaps): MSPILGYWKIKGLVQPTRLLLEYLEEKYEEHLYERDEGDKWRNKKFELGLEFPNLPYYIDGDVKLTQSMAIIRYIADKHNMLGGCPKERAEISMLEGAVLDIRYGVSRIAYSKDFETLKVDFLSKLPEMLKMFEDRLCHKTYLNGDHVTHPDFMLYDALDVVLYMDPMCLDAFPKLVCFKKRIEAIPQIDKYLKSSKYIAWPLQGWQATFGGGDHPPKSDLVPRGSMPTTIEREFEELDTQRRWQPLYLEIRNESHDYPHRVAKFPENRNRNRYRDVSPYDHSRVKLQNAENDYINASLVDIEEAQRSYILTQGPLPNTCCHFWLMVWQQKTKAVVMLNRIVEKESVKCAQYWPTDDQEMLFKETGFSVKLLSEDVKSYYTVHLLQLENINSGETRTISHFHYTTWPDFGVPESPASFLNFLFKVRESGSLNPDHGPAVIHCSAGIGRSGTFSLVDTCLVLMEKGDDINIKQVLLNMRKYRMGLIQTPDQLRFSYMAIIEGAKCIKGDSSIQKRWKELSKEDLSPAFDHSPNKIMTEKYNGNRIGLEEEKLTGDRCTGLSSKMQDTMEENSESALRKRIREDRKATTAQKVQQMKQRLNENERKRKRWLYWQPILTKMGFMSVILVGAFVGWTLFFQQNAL

As for `CCOc1ccccc1-c1cc(O)c(N2CC(=O)NS2(=O)=O)c(F)c1` [Example 5, 5-(2′-ethoxy-3-fluoro-5-hydroxybiphenyl-4-yl)-1,2,5-thiadiazolidin-3-one 1,1-dioxide], the negative-log IC50 (pIC50) is 6.30 to 7.00 on GST-tagged PTPN2 protein, no more than 4.00 in assay [1] (setting [2]) and no more than 4.00 in assay [1] (setting [3]). For the same compound, the inhibition at 100 µM is 50 to 75% in assay [1] (setting [4]) and 10 to 50% in assay [1] (setting [5]).
On GST-tagged PTPN2 protein, `O=C1CN(c2c(O)cc(NC(=O)NCc3ccccc3)cc2F)S(=O)(=O)N1` [Example 60, 1-benzyl-3-[4-(1,1-dioxido-4-oxo-1,2,5-thiadiazolidin-2-yl)-3-fluoro-5-hydroxyphenyl]urea] gave a pIC50 of 7.30 to 8.00.
`Cc1ccccc1S(=O)(=O)Nc1cc(O)c(N2CC(=O)NS2(=O)=O)c(F)c1` [Example 23, N-[4-(1,1-dioxido-4-oxo-1,2,5-thiadiazolidin-2-yl)-3-fluoro-5-hydroxyphenyl]-2-methylbenzenesulfonamide]: the negative logarithm of the IC50 (pIC50) is 7.00 to 7.30 at GST-tagged PTPN2 protein, 4.00 to 4.30 in assay [1] (setting [2]) and no more than 4.00 in assay [1] (setting [3]). Besides, the inhibition at 100 µM in assay [1] (setting [4]) lay in the range of 50 to 75%; in assay [1] (setting [5]), 10 to 50%.
The matching figures for `O=C1CN(c2c(O)cc(NC(=O)Nc3ccc(Cl)cc3)cc2F)S(=O)(=O)N1` [Example 47, 1-(4-chlorophenyl)-3-[4-(1,1-dioxido-4-oxo-1,2,5-thiadiazolidin-2-yl)-3-fluoro-5-hydroxyphenyl]urea]: greater than 8.30, 4.00 to 4.30, no more than 4.00, 50 to 75% and 10 to 50%.
The matching figures for `CC(C)(C)OC(=O)N1CCC(NC(=O)Nc2cc(O)c(N3CC(=O)NS3(=O)=O)c(F)c2)CC1` [Example 98, tert-butyl 4-[[3-fluoro-5-hydroxy-4-(1,1,4-trioxo-1,2,5-thiadiazolidin-2-yl)phenyl]carbamoyl-amino]piperidine-1-carboxylate]: 7.30 to 8.00, no more than 4.00, no more than 4.00, 10 to 50% and 10 to 50%.
`O=C1CN(c2c(O)cc(NC(=O)NC3CCCCC3)cc2F)S(=O)(=O)N1` [Example 56, 1-cyclohexyl-3-[4-(1,1-dioxido-4-oxo-1,2,5-thiadiazolidin-2-yl)-3-fluoro-5-hydroxyphenyl]urea]: the pIC50 on GST-tagged PTPN2 protein was greater than 8.30; in assay [1] (setting [2]) it was greater than 5.30; in assay [1] (setting [3]) it was no more than 4.00. The inhibition at 100 µM lay within 75 to 100% in assay [1] (setting [4]) and 10 to 50% in assay [1] (setting [5]).
In the same order, the values of `O=C1CN(c2c(O)cc(-c3ccc(F)cc3)cc2F)S(=O)(=O)N1` [Example 8, 5-(3,4′-difluoro-5-hydroxybiphenyl-4-yl)-1,2,5-thiadiazolidin-3-one 1,1-dioxide] are 6.30 to 7.00, no more than 4.00, no more than 4.00, 10 to 50% and 10 to 50%.
Consider `O=C1CN(c2c(O)cc(NC(=O)N[C@H](CO)c3ccccc3)cc2F)S(=O)(=O)N1` [Example 103, 1-[3-fluoro-5-hydroxy-4-(1,1,4-trioxo-1,2,5-thiadiazolidin-2-yl)phenyl]-3-[(1S)-2-hydroxy-1-phenylethyl]urea], for which the figures for the negative-log IC50 (pIC50) (at GST-tagged PTPN2 protein; in assay [1] (setting [2]); in assay [1] (setting [3])) were 8.00 to 8.30, greater than 5.30 and no more than 4.00, respectively. Moreover, the results for the inhibition at 100 µM in assay [1] (setting [4]) and in assay [1] (setting [5]) were 75 to 100% and 10 to 50%, respectively.
As for `CC(C)(C)OC(=O)N1CCN(c2ccc(NC(=O)Nc3cc(O)c(N4CC(=O)NS4(=O)=O)c(F)c3)cc2)CC1` [Example 66, tert-butyl 4-[4-({[4-(1,1-dioxido-4-oxo-1,2,5-thiadiazolidin-2-yl)-3-fluoro-5-hydroxyphenyl]carbamoyl}amino)phenyl]piperazine-1-carboxylate], at GST-tagged PTPN2 protein, the negative-log IC50 (pIC50) was greater than 8.30.
On the same count and under the same terms, for `O=C1CN(c2c(O)cc(NC(=O)Nc3ccccc3F)cc2F)S(=O)(=O)N1` [Example 93, 1-[4-(1,1-dioxido-4-oxo-1,2,5-thiadiazolidin-2-yl)-3-fluoro-5-hydroxyphenyl]-3-(2-fluorophenyl)urea] the value was greater than 8.30.
Same read-out and setting: the value for `CN(C1CCCCC1)S(=O)(=O)Nc1cc(O)c(N2CC(=O)NS2(=O)=O)c(F)c1` [Example 32, N-cyclohexyl-N′-[4-(1,1-dioxido-4-oxo-1,2,5-thiadiazolidin-2-yl)-3-fluoro-5-hydroxyphenyl]-N-methylsulfuric diamide] was 7.30 to 8.00; that for `CC(C)c1ccc(NC(=O)Nc2cc(O)c(N3CC(=O)NS3(=O)=O)c(F)c2)cc1` [Example 70, 1-[4-(1,1-dioxido-4-oxo-1,2,5-thiadiazolidin-2-yl)-3-fluoro-5-hydroxyphenyl]-3-[4-(propan-2-yl)phenyl]urea] was greater than 8.30.
As for `CN(c1ccccc1)S(=O)(=O)Nc1cc(O)c(N2CC(=O)NS2(=O)=O)c(F)c1` [Example 31, N′-[4-(1,1-dioxido-4-oxo-1,2,5-thiadiazolidin-2-yl)-3-fluoro-5-hydroxyphenyl]-N-methyl-N-phenylsulfuric diamide], the negative logarithm of the IC50 (pIC50) against GST-tagged PTPN2 protein is 7.30 to 8.00.
Same read-out and setting: the value for `Cc1cccc(-c2cc(O)c(N3CC(=O)NS3(=O)=O)c(F)c2)c1` [Example 9, 5-(3-fluoro-5-hydroxy-3′-methylbiphenyl-4-yl)-1,2,5-thiadiazolidin-3-one 1,1-dioxide] was 6.30 to 7.00.
At GST-tagged PTPN2 protein, `O=C1CN(c2c(O)cc(NC(=O)Nc3ccc(OC(F)(F)F)cc3)cc2F)S(=O)(=O)N1` [Example 71, 1-[4-(1,1-dioxido-4-oxo-1,2,5-thiadiazolidin-2-yl)-3-fluoro-5-hydroxyphenyl]-3-[4-(trifluoromethoxy)phenyl]urea] had a negative-log IC50 (pIC50) greater than 8.30.
On the same count and under the same terms, the value for `O=C1CN(c2c(O)cc(NC(=O)Nc3ccc(N4CCOCC4)cc3)cc2F)S(=O)(=O)N1` [Example 65, 1-[4-(1,1-dioxido-4-oxo-1,2,5-thiadiazolidin-2-yl)-3-fluoro-5-hydroxyphenyl]-3-[4-(morpholin-4-yl)phenyl]urea] was greater than 8.30.
On the same count and under the same terms, for `O=C1CN(c2c(O)cc(NC(=O)Nc3ccc(N4CCNCC4)cc3)cc2F)S(=O)(=O)N1` [Example 67, 1-[4-(1,1-dioxido-4-oxo-1,2,5-thiadiazolidin-2-yl)-3-fluoro-5-hydroxyphenyl]-3-[4-(piperazin-1-yl)phenyl]urea hydrochloride] the value was greater than 8.30.
Regarding `Cc1ccccc1-c1cc(O)c(N2CC(=O)NS2(=O)=O)c(F)c1` [Example 6, 5-(3-fluoro-5-hydroxy-2′-methylbiphenyl-4-yl)-1,2,5-thiadiazolidin-3-one 1,1-dioxide], the pIC50 against GST-tagged PTPN2 protein is no more than 6.30.
On the same count and under the same terms, the value for `COc1ccc(NC(=O)Nc2cc(O)c(N3CC(=O)NS3(=O)=O)c(F)c2)cc1C(F)(F)F` [Example 68, 1-[4-(1,1-dioxido-4-oxo-1,2,5-thiadiazolidin-2-yl)-3-fluoro-5-hydroxyphenyl]-3-[4-methoxy-3-(trifluoromethyl)phenyl]urea] was greater than 8.30.
Still for that read-out and setting: the value for `Cc1ccc(-c2cc(O)c(N3CC(=O)NS3(=O)=O)c(F)c2)cc1` [Example 10, 5-(3-fluoro-5-hydroxy-4′-methylbiphenyl-4-yl)-1,2,5-thiadiazolidin-3-one 1,1-dioxide] was 6.30 to 7.00.
